Test results taken from patent publication US6083932A, “Pharmaceutical compositions derived from ginseng and methods of treatment using same” (CV Technologies Inc., priority 1998, dated 2000).
“Also recorded” adds a separate entry of the source.

Experiments:
monoamine oxidase-B = molecular target: T1, monoamine oxidase-B (Rattus norvegicus, UniProt P19643); assay: in vitro monoamine oxidase-B inhibiting activity (radiochemical, β-phenylethylamine substrate); format: biochemical; settings: read-out: % MAO-B Inhibition; for inhibition at 1000 µg/mL: 1.0 mg/ml; for inhibition at 10000 µg/mL: 10 mg/ml
T1 construct: homogenates of rat brain; from tissue; host or cells: rat brain homogenate
T1 sequence (P19643 1-520): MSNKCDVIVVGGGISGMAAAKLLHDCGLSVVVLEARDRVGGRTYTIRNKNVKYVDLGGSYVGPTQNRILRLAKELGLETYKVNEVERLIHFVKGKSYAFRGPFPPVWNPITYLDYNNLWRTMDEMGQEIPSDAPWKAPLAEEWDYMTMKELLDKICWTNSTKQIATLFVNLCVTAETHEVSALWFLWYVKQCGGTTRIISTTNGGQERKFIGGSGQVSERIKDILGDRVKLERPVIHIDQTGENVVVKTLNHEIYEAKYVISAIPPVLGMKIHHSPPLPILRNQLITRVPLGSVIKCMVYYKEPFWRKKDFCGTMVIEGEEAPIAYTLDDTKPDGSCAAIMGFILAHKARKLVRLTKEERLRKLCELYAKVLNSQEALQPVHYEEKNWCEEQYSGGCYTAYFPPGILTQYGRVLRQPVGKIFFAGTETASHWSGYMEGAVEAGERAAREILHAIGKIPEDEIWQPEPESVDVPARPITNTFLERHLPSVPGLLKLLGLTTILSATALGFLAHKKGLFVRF
Procedure: Example 1 is a study of the effects of several extracts of HT1001, PQ4, PQ5, PQ6 and pure ginsenosides, on monoamine oxidase A (MAO A) and monoamine oxidase B (MAO B) activity in vitro.
HT-1001, related extracts and pure ginsenosides were evaluated for in vitro monoamine oxidase-A and monoamine oxidase-B inhibiting activity using the radiochemical procedure of Lyles and Callingham, Biochem. Pharmacol. 31: 1417-1424 (1982), employing either radiolabelled 5-hydroxytryptamine or β-phenylethylamine as substrates for monoamine oxidase-A (MAO-A) or monoamine oxidase-B (MAO-B) respectively. Various concentrations of the compounds of interest were incubated in appropriately diluted homogenates of rat brain in a 0.2 M potassium phosphate buffer. After a 15 minute preincubation period the reaction was initiated by the addition of substrate. Incubations proceded at 37° C. for 10 minutes. Incubation was terminated by the addition of acid and the radiolabelled products (5-hydroxyindoleacetic acid, 5-hydroxyindoleacetaldehyde or phenylacetic acid, phenylacetaldehyde) were extracted and quantified by liquid scintillation counting procedures. Incubations were done in triplicate and incubations including pheneizine a known MAO inhibitor were included as controls and for comparison. The percent inhibition of monoamine oxidase-A or monoamine oxidase-B activity compared to controls containing no experimental material was calculated.

T type calcium channel = T type calcium channel currents in N1E115 neuroblastoma cells (whole-cell patch-clamp); format: cell-based, mouse; settings: same concentration (100 μM); N1E-115 cells
Procedure: (§1) A study of the effects of HT1001 and some pure ginsenosides on calcium channel activity in cultured neuroblastoma cells was conducted.
(§2) Neuroblastoma Cell Culture. Mouse neuroblastoma cells (N1E115) were cultured in Dulbecco's modified Eagle's medium (GIBCO) containing 10% fetal bovine serum at 37° C. in a humidified atmosphere of 5% CO2 in air. The medium was changed every 3-4 days. After mechanical agitation, 3×10^4 cells were replanted in 35 mm tissue culture dishes containing 4 ml of bath solution. After cell attachment, the dish was mounted on the stage of an inverted phase-contrast microscope (Nikon) for Ca^2+ channel current recording. These cells expressed predominately T channel currents. In experiments where L channels were specifically sought, the cells were grown and maintained at confluence for 3-4 weeks under the same culture conditions with the addition of 2% (vol/vol) dimethyl sulfoxide. Three to five days before use, the cells were replanted with the same medium. These cells expressed predominately L channel currents. […]
(§3) Ca^2+ Channel Current Recording in Neuroblastoma Cells. […] Since the peak currents measured with 20 mM Ba^2+ as the charge carrier were usually small (about 200 pA) the series resistance compensation was not usually employed. […] For every single-cell recording, stable readings were first obtained for 5 min; the drug was then added to the bath solution. […]

L type calcium channel = L type calcium channel currents in N1E115 neuroblastoma cells (whole-cell patch-clamp); format: cell-based, mouse; settings: same concentration (100 μM); N1E-115 cells
Procedure: as §1, §2, §3

[1] = test system: ACh in the cortical and hippocampal regions of the brain; settings: U.S. Pat. No. 5,137,878; cited from earlier work
5-hydroxytryptamine = settings: rat and mouse brain; Zhang et al 1990; cited from earlier work

## CC(C)=CCC[C@](C)(O[C@@H]1O[C@H](CO[C@@H]2O[C@H](CO)[C@@H](O)[C@H](O)[C@H]2O)[C@@H](O)[C@H](O)[C@H]1O)[C@H]1CC[C@]2(C)[C@@H]1[C@H](O)C[C@@H]1[C@@]3(C)CC[C@H](O[C@@H]4O[C@H](CO)[C@@H](O)[C@H](O)[C@H]4O[C@@H]4O[C@H](CO)[C@@H](O)[C@H](O)[C@H]4O)C(C)(C)[C@@H]3CC[C@]12C [Rb1, ginsenoside Rb1]
Monoamine oxidase-B
  inhibition at 1000 µg/mL: -11.6%
  inhibition at 10000 µg/mL: -7.8%
T type calcium channel
  effect on T type calcium channel currents: significant inhibitory effect; also recorded: inhibitory effects
L type calcium channel
  effect on L type calcium channel currents: significant inhibitory effect; also recorded: inhibitory effects
[1]
  availability of ACh: enhance the availability of ACh
  symptoms of Alzheimer-type senile dementia: alleviate the symptoms of Alzheimer-type senile dementia
5-hydroxytryptamine
  levels of 5-hydroxytryptamine and 5-hydroxyindoleacetic acid: decrease the levels

## CC(C)=CCC[C@](C)(O[C@@H]1O[C@H](CO)[C@@H](O)[C@H](O)[C@H]1O)[C@H]1CC[C@]2(C)[C@@H]1[C@H](O)C[C@@H]1[C@@]3(C)CC[C@H](O)C(C)(C)[C@@H]3[C@@H](O[C@@H]3O[C@H](CO)[C@@H](O)[C@H](O)[C@H]3O)C[C@]12C [Rg1, ginsenoside Rg1]
Monoamine oxidase-B
  inhibition at 1000 µg/mL: -7.2%
  inhibition at 10000 µg/mL: -5%
T type calcium channel
  effect on T type calcium channel currents: significant inhibitory effect; also recorded: inhibitory effects
L type calcium channel
  effect on L type calcium channel currents: significant inhibitory effect; also recorded: inhibitory effects
[1]
  availability of ACh: enhance the availability of ACh
  symptoms of Alzheimer-type senile dementia: alleviate the symptoms of Alzheimer-type senile dementia
5-hydroxytryptamine
  levels of 5-hydroxytryptamine and 5-hydroxyindoleacetic acid: decrease the levels
